The source of these data is ChEMBL document CHEMBL2203143, “Synthesis and antiproliferative activities of ottelione a analogues” (ACS Med Chem Lett, 2012).

The term IC50 denotes the point on the concentration scale where inhibition reaches its midpoint. For orientation: inhibition means how much of the control response was suppressed.

The source made the active and inactive calls. No cut-off for these calls is given here.

The first assay has as its system KB. Nature of the assay: Antiproliferative activity against human KB cells assessed as cell viability after 72 hrs by CellTiter96 assay. It counts as functional, cell-based.
Details: not given
Consider `C=C1C=CC(=O)[C@@H]2[C@H](Cc3ccc(OC)c(O)c3)CC[C@H]12` (racemic), for which the IC50 came to 4.94 nM.
For the compound `COc1ccc(C[C@@H]2CC[C@@H]3CC=CC(=O)[C@@H]32)cc1O` (racemic), the half-maximal inhibitory concentration (IC50) was greater than 1000 nM.
On to `CC=C1C=CC(=O)[C@@H]2[C@H](Cc3ccc(OC)c(O)c3)CC[C@H]12` (racemic), for which the half-maximal inhibitory concentration (IC50) worked out at 22.6 nM.
The same measure, in the same setting: in the case of `C=C1C=CC(=O)[C@@H]2[C@H](Cc3ccccc3)CC[C@H]12` (racemic) it was 591 nM; in that of `C=C1C=CC(=O)[C@@H]2[C@H](Cc3ccc(O)cc3)CC[C@H]12` (racemic), 68.8 nM.
With `C=C[C@@H]1C[C@@H](Cc2ccc(OC)c(O)c2)[C@H]2C(=O)C=CC(=C)[C@H]21` (racemic), the IC50 was 1.59 nM.

The subject of a further assay is A-375. Nature of the assay: Antiproliferative activity against human A375 cells assessed as cell viability after 72 hrs by CellTiter96 assay. The conditions noted are these: A-375, 72 h. It counts as functional, cell-based.
As to `C=C1C=CC(=O)[C@@H]2[C@H](Cc3ccc(OC)c(O)c3)CC[C@H]12` (racemic), the IC50 is 1.07 nM.
In the case of `COc1ccc(C[C@@H]2CC[C@@H]3CC=CC(=O)[C@@H]32)cc1O` (racemic), the IC50 came out at 914 nM.
In the case of `CC=C1C=CC(=O)[C@@H]2[C@H](Cc3ccc(OC)c(O)c3)CC[C@H]12` (racemic), the IC50 is 9.2 nM.
As to `C=C1C=CC(=O)[C@@H]2[C@H](Cc3ccccc3)CC[C@H]12` (racemic), the IC50 is 237 nM.
Regarding `C=C1C=CC(=O)[C@@H]2[C@H](Cc3ccc(O)cc3)CC[C@H]12` (racemic), the IC50 is 30.8 nM.
The same measure, in the same setting: in the case of `C=C[C@@H]1C[C@@H](Cc2ccc(OC)c(O)c2)[C@H]2C(=O)C=CC(=C)[C@H]21` (racemic) it was 0.4 nM.

Another assay deals with T1, Tubulin (Sus scrofa) (UniProt P02554+P02550). Nature of the assay: Inhibition of pig neuronal tubulin polymerization at 10 uM by fluorescence analysis. The class given is protein assay.
T1 sequence (P02550 whole entry, looked up): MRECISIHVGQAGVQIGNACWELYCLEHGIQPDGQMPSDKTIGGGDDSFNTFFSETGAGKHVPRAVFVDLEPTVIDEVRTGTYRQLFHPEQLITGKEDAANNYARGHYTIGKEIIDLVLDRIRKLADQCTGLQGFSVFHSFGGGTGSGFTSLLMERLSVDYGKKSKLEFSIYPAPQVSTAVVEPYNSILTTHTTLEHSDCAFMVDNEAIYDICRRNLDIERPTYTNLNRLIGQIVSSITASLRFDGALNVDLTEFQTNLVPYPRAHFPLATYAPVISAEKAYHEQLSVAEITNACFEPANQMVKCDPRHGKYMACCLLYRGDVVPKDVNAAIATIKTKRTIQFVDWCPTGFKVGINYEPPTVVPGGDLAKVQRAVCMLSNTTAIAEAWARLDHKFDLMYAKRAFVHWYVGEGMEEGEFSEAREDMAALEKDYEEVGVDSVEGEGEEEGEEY
T1 sequence (P02554 whole entry, looked up): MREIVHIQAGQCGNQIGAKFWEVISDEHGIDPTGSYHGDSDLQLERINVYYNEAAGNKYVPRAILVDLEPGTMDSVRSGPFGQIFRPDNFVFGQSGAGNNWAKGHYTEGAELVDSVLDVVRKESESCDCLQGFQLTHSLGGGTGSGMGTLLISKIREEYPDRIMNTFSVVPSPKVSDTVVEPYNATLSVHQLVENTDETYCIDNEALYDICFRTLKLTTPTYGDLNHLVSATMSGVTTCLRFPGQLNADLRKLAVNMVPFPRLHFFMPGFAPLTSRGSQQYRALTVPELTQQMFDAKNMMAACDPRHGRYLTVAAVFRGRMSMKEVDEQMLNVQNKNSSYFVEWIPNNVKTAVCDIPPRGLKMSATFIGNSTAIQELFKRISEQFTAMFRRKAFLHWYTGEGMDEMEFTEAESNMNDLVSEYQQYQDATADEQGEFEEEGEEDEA
Details: not given
Turning to `C=C1C=CC(=O)[C@@H]2[C@H](Cc3ccc(OC)c(O)c3)CC[C@H]12` (racemic), the inhibition entry was “Active”.
Turning to `C=C[C@@H]1C[C@@H](Cc2ccc(OC)c(O)c2)[C@H]2C(=O)C=CC(=C)[C@H]21` (racemic), the inhibition entry is “Active”.

The subject of the next assay is NCI-H460. The assay is described as follows: Antiproliferative activity against human NCI-H460 cells assessed as cell viability after 72 hrs by CellTiter96 assay. It counts as functional, cell-based. The conditions noted are these: NCI-H460, 72 h.
On to `C=C1C=CC(=O)[C@@H]2[C@H](Cc3ccc(OC)c(O)c3)CC[C@H]12` (racemic), for which the IC50 is 16 nM.
For the compound `COc1ccc(C[C@@H]2CC[C@@H]3CC=CC(=O)[C@@H]32)cc1O` (racemic), the IC50 is greater than 1000 nM.
Take `CC=C1C=CC(=O)[C@@H]2[C@H](Cc3ccc(OC)c(O)c3)CC[C@H]12` (racemic): the IC50 came to 24.6 nM.
Same read-out and setting: to `C=C1C=CC(=O)[C@@H]2[C@H](Cc3ccccc3)CC[C@H]12` (racemic) belongs 678 nM; to `C=C1C=CC(=O)[C@@H]2[C@H](Cc3ccc(O)cc3)CC[C@H]12` (racemic), 77.6 nM; to `C=C[C@@H]1C[C@@H](Cc2ccc(OC)c(O)c2)[C@H]2C(=O)C=CC(=C)[C@H]21` (racemic), 14.5 nM.

A further assay relates to MCF7. The assay is described as follows: Antiproliferative activity against human MCF7 cells assessed as cell viability after 72 hrs by CellTiter96 assay. The class given is functional, cell-based. The conditions noted are these: MCF7, 72 h.
As to `C=C1C=CC(=O)[C@@H]2[C@H](Cc3ccc(OC)c(O)c3)CC[C@H]12` (racemic), the IC50 was 3.73 nM.
With `COc1ccc(C[C@@H]2CC[C@@H]3CC=CC(=O)[C@@H]32)cc1O` (racemic), the IC50 is greater than 1000 nM.
Still for that read-out and setting: in the case of `CC=C1C=CC(=O)[C@@H]2[C@H](Cc3ccc(OC)c(O)c3)CC[C@H]12` (racemic) it was 26.3 nM.
On to `C=C1C=CC(=O)[C@@H]2[C@H](Cc3ccccc3)CC[C@H]12` (racemic), for which the IC50 worked out at 260 nM.
As for `C=C1C=CC(=O)[C@@H]2[C@H](Cc3ccc(O)cc3)CC[C@H]12` (racemic), the IC50 came to 33.8 nM.
Turning to `C=C[C@@H]1C[C@@H](Cc2ccc(OC)c(O)c2)[C@H]2C(=O)C=CC(=C)[C@H]21` (racemic), the IC50 is 1.17 nM.

Another assay deals with HCT-116. The assay is described as follows: Antiproliferative activity against human HCT116 cells assessed as cell viability after 72 hrs by CellTiter96 assay. The class given is functional, cell-based. As to conditions: HCT-116, 72 h.
As to `C=C1C=CC(=O)[C@@H]2[C@H](Cc3ccc(OC)c(O)c3)CC[C@H]12` (racemic), the IC50 was 3.01 nM.
Turning to `COc1ccc(C[C@@H]2CC[C@@H]3CC=CC(=O)[C@@H]32)cc1O` (racemic), the IC50 is greater than 1000 nM.
In the case of `CC=C1C=CC(=O)[C@@H]2[C@H](Cc3ccc(OC)c(O)c3)CC[C@H]12` (racemic), the IC50 was determined as 14 nM.
The same measure, in the same setting: to `C=C1C=CC(=O)[C@@H]2[C@H](Cc3ccccc3)CC[C@H]12` (racemic) belongs 257 nM.
In the case of `C=C1C=CC(=O)[C@@H]2[C@H](Cc3ccc(O)cc3)CC[C@H]12` (racemic), the IC50 was determined as 38.5 nM.
Take `C=C[C@@H]1C[C@@H](Cc2ccc(OC)c(O)c2)[C@H]2C(=O)C=CC(=C)[C@H]21` (racemic): the IC50 is 0.74 nM.

For the next assay, the target named is T1, Tubulin (Sus scrofa). Nature of the assay: Displacement of [3H]colchicine from tubulin in pig brain at 10 uM after 16 hrs by scintillation proximity assay.
Details: not given
On the technique in general: Loss of bound radioactivity is the signal in a displacement assay; it reports binding, not function.
`C=C1C=CC(=O)[C@@H]2[C@H](Cc3ccc(OC)c(O)c3)CC[C@H]12` (racemic) registered an inhibition of 95.8%.
`COc1ccc(C[C@@H]2CC[C@@H]3CC=CC(=O)[C@@H]32)cc1O` (racemic) returned an inhibition of 39.2%.
Regarding `CC=C1C=CC(=O)[C@@H]2[C@H](Cc3ccc(OC)c(O)c3)CC[C@H]12` (racemic), the inhibition was determined as 96.1%.
In the case of `C=C1C=CC(=O)[C@@H]2[C@H](Cc3ccccc3)CC[C@H]12` (racemic), the inhibition was 43.2%.
Same read-out and setting: in the case of `C=C1C=CC(=O)[C@@H]2[C@H](Cc3ccc(O)cc3)CC[C@H]12` (racemic) it was 71.6%; in that of `C=C[C@@H]1C[C@@H](Cc2ccc(OC)c(O)c2)[C@H]2C(=O)C=CC(=C)[C@H]21` (racemic), 98.3%.

In the next assay the test system is COLO 205. The assay is described as follows: Antiproliferative activity against human COLO205 cells assessed as cell viability after 72 hrs by CellTiter96 assay. The class given is functional, cell-based. As to conditions: COLO 205, 72 h.
Consider `C=C1C=CC(=O)[C@@H]2[C@H](Cc3ccc(OC)c(O)c3)CC[C@H]12` (racemic), for which the IC50 stood at 244 nM.
Consider `COc1ccc(C[C@@H]2CC[C@@H]3CC=CC(=O)[C@@H]32)cc1O` (racemic), for which the IC50 was greater than 1000 nM.
For `CC=C1C=CC(=O)[C@@H]2[C@H](Cc3ccc(OC)c(O)c3)CC[C@H]12` (racemic), the IC50 is 739 nM.
On to `C=C1C=CC(=O)[C@@H]2[C@H](Cc3ccccc3)CC[C@H]12` (racemic), for which the half-inhibitory concentration (IC50) came out at 547 nM.
With `C=C1C=CC(=O)[C@@H]2[C@H](Cc3ccc(O)cc3)CC[C@H]12` (racemic), the IC50 was 218 nM.
As to `C=C[C@@H]1C[C@@H](Cc2ccc(OC)c(O)c2)[C@H]2C(=O)C=CC(=C)[C@H]21` (racemic), the IC50 was found to be 92.8 nM.
